Literature values as cited in publication PMC9516332 (Frontiers in Oncology, 2022).
Read-outs that look alike come from different tables or passages of the source.

What was measured:
Conditions in all cases: cited from earlier work
[1] = molecular target: panel of 255 wild-type kinases (Homo sapiens, UniProt P23443)
[2] = molecular target: panel of 255 wild-type kinases (Homo sapiens, UniProt Q00535)
[3] = molecular target: panel of 255 wild-type kinases (Homo sapiens, UniProt P05771)
[4] = molecular target: panel of 255 wild-type kinases (Homo sapiens, UniProt P07332)
[5] = molecular target: panel of 255 wild-type kinases (Homo sapiens, UniProt Q9Y6E0)
[6] = molecular target: panel of 255 wild-type kinases (Homo sapiens, UniProt P00519)
[7] = molecular target: T1, panel of 255 wild-type kinases (Homo sapiens, UniProt Q9BZL6)
T1 sequence (Q9BZL6 1-878): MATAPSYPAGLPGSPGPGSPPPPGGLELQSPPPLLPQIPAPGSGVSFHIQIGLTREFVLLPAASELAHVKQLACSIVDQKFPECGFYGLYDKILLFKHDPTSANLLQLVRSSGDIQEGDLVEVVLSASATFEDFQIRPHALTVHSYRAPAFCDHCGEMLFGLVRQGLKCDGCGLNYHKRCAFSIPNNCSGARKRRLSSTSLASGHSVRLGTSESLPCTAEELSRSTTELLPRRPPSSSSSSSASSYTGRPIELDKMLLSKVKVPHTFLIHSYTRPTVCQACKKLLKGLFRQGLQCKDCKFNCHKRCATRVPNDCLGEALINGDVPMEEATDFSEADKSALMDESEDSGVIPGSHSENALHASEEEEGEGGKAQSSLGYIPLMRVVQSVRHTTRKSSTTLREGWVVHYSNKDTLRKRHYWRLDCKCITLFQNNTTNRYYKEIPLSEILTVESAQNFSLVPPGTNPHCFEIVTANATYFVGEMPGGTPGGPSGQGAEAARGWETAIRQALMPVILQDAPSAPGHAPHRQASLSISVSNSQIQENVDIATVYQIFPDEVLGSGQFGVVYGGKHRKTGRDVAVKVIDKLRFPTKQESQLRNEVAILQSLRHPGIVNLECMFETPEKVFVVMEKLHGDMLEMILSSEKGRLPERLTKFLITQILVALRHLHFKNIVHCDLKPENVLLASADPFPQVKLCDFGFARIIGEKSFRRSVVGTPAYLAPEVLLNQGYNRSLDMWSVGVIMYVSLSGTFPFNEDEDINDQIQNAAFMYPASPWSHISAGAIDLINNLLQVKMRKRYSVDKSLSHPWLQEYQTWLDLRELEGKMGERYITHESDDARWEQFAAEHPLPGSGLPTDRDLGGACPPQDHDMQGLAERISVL

[8] = molecular target: panel of 255 wild-type kinases (Homo sapiens, UniProt P49761)
[9] = molecular target: panel of 255 wild-type kinases (Homo sapiens, UniProt P08069)
[10] = molecular target: T2, panel of 255 wild-type kinases (Homo sapiens, UniProt Q13043)
T2 sequence (Q13043 1-487): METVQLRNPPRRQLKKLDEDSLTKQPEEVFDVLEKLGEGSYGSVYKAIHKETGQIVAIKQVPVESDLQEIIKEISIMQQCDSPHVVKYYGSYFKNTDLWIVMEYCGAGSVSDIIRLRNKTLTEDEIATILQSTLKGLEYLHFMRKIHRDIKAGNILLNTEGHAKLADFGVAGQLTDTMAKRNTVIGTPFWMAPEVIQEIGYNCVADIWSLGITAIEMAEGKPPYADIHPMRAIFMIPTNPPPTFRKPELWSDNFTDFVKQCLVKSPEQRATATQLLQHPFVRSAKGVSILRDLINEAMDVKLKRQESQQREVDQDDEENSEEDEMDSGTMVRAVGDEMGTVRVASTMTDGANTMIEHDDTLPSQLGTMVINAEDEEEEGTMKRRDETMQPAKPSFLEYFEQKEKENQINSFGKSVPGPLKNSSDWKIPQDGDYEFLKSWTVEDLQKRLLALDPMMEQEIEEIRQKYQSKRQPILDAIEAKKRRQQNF

[11] = molecular target: panel of 255 wild-type kinases (Homo sapiens, UniProt P11309)
[12] = p70S6K, 1 µmol/L single concentration, ref DOI: 10.1158/1535-7163.MCT-18-0877
[13] = CDK5/p25 kinase assay, 1 µmol/L single concentration, ref DOI: 10.1158/1535-7163.MCT-18-0877
[14] = kinase PKCβ1, 1 µmol/L single concentration, ref DOI: 10.1158/1535-7163.MCT-18-0877
[15] = kinase FES, 1 µmol/L single concentration, ref DOI: 10.1158/1535-7163.MCT-18-0877
[16] = MST3, 1 µmol/L single concentration, ref DOI: 10.1158/1535-7163.MCT-18-0877
[17] = ABL kinase assay, 1 µmol/L single concentration, ref DOI: 10.1158/1535-7163.MCT-18-0877
[18] = kinase PKD2, 1 µmol/L single concentration, ref DOI: 10.1158/1535-7163.MCT-18-0877
[19] = kinase CLK3, 1 µmol/L single concentration, ref DOI: 10.1158/1535-7163.MCT-18-0877
[20] = kinase IGF1R, 1 µmol/L single concentration, ref DOI: 10.1158/1535-7163.MCT-18-0877
[21] = MST1, 1 µmol/L single concentration, ref DOI: 10.1158/1535-7163.MCT-18-0877
[22] = kinase PIM1, 1 µmol/L single concentration, ref DOI: 10.1158/1535-7163.MCT-18-0877
[23] = p70S6K, 1 µmol/L single concentration, ref DOI: 10.1371/journal.pone.0092146
[24] = CDK5/p25 kinase assay, 1 µmol/L single concentration, ref DOI: 10.1371/journal.pone.0092146
[25] = kinase PKCβ1, 1 µmol/L single concentration, ref DOI: 10.1371/journal.pone.0092146
[26] = MST3, 1 µmol/L single concentration, ref DOI: 10.1371/journal.pone.0092146
[27] = kinase CLK3, 1 µmol/L single concentration, ref DOI: 10.1371/journal.pone.0092146
[28] = kinase IGF1R, 1 µmol/L single concentration, ref DOI: 10.1371/journal.pone.0092146
[29] = MST1, 1 µmol/L single concentration, ref DOI: 10.1371/journal.pone.0092146
[30] = kinase PIM1, 1 µmol/L single concentration, ref DOI: 10.1371/journal.pone.0092146
[31] = kinase FES, 1 µmol/L single concentration, ref DOI: 10.1371/journal.pone.0092146
[32] = kinase PKD2, 1 µmol/L single concentration, ref DOI: 10.1371/journal.pone.0092146

| Compound | %-inhibition, p70S6K [1, 12] | %-inhibition CDK5/p25 [2, 13] | %-inhibition at 1 µmol/L, PKCβ1 [3, 14] | %-inhibition at 1 µmol/L, FES [4, 15] | %-inhibition, MST3 [5, 16] | %-inhibition ABL [6, 17] | %-inhibition at 1 µmol/L, PKD2 [7, 18] | %-inhibition at 1 µmol/L, CLK3 [8, 19] | %-inhibition at 1 µmol/L, IGF1R [9, 20] | %-inhibition, MST1 [10, 21] | %-inhibition at 1 µmol/L, PIM1 [11, 22] | further results |
| --- | --- | --- | --- | --- | --- | --- | --- | --- | --- | --- | --- | --- |
| O=C(c1ccc(F)c(F)c1Nc1ccc(I)cc1F)N1CC(O)([C@@H]2CCCCN2)C1 [cobimetinib] | 19% | -7% | -4.35% | 1.67% | 4.62% | -4% | -11% | 4% | 6% | -9% | 1% | – |
| CO[C@@H]1[C@H](N(C)C(=O)c2ccccc2)C[C@H]2O[C@]1(C)n1c3ccccc3c3c4c(c5c6ccccc6n2c5c31)C(=O)NC4 [midostaurin] | 82% | – | 89% | 90% | – | 9% | – | – | 24% | – | 52% | – |
| C=CC(=O)N1CCC[C@@H](n2nc(-c3ccc(Oc4ccccc4)cc3)c3c(N)ncnc32)C1 [ibrutinib] | 19% | -5% | -3% | 0.681% | 8% | 8% | -3.2% | – | 7.45% | 4% | – | – |
| C[C@@H](Oc1cc(-c2cnn(C3CCNCC3)c2)cnc1N)c1c(Cl)ccc(F)c1Cl [crizotinib] | – | – | – | – | – | – | – | – | – | – | – | %-inhibition, p70S6K [1, 23]: 40%; %-inhibition CDK5/p25 [2, 24]: -8%; %-inhibition at 1 µmol/L, PKCβ1 [3, 25]: -3%; %-inhibition, MST3 [5, 26]: 11%; %-inhibition at 1 µmol/L, CLK3 [8, 27]: -5%; %-inhibition at 1 µmol/L, IGF1R [9, 28]: 80%; %-inhibition, MST1 [10, 29]: 83%; %-inhibition at 1 µmol/L, PIM1 [11, 30]: -7% |
| Cc1cc(Nc2ncc(Cl)c(Nc3ccccc3S(=O)(=O)C(C)C)n2)c(OC(C)C)cc1C1CCNCC1 [ceritinib] | 16% | -22% | 6.66% | 99% | 31% | -1.61% | 25% | 36% | 103% | 17% | -8% | – |
| CC(C)(C)c1nc(-c2cccc(NS(=O)(=O)c3c(F)cccc3F)c2F)c(-c2ccnc(N)n2)s1 [dabrafenib] | – | – | – | – | – | – | – | – | – | – | – | %-inhibition CDK5/p25 [2, 24]: 22%; %-inhibition at 1 µmol/L, FES [4, 31]: 2.29%; %-inhibition, MST3 [5, 26]: 0.532%; %-inhibition at 1 µmol/L, PKD2 [7, 32]: 82%; %-inhibition at 1 µmol/L, CLK3 [8, 27]: 17% |
| C=CC(=O)Nc1cc(Nc2nccc(-c3cn(C)c4ccccc34)n2)c(OC)cc1N(C)CCN(C)C [osimertinib] | 21% | -0.719% | 9% | 42% | 5.71% | 4.62% | 16% | 6% | 84% | 1.52% | -4.4% | – |
| CC#CC(=O)N1CCC[C@H]1c1nc(-c2ccc(C(=O)Nc3ccccn3)cc2)c2c(N)nccn12 [acalabrutinib] | -14% | -19% | -11% | -6.35% | -2.52% | -2.81% | -10% | -15% | 0.466% | 4% | -4.28% | – |
| COc1cc(N2CCC(N3CCN(C)CC3)CC2)ccc1Nc1ncc(Cl)c(Nc2ccccc2P(C)(C)=O)n1 [brigatinib] | – | – | – | – | – | – | – | – | – | – | – | %-inhibition, p70S6K [1]: 33%; %-inhibition CDK5/p25 [2]: 40%; %-inhibition at 1 µmol/L, PKCβ1 [3]: 7.42%; %-inhibition at 1 µmol/L, FES [4]: 100%; %-inhibition, MST3 [5]: 13%; %-inhibition ABL [6]: 54%; %-inhibition at 1 µmol/L, PKD2 [7]: 86%; %-inhibition at 1 µmol/L, CLK3 [8]: 33%; %-inhibition at 1 µmol/L, IGF1R [9]: 99%; %-inhibition, MST1 [10]: 71%; %-inhibition at 1 µmol/L, PIM1 [11]: 3% |
| CCCS(=O)(=O)Nc1ccc(F)c(C(=O)c2c[nH]c3ncc(-c4ccc(Cl)cc4)cc23)c1F [vemurafenib] | – | – | – | – | – | – | – | – | – | – | – | %-inhibition, p70S6K [1, 23]: 9%; %-inhibition CDK5/p25 [2, 24]: 5%; %-inhibition at 1 µmol/L, PKCβ1 [3, 25]: -3.81%; %-inhibition at 1 µmol/L, FES [4, 31]: 18%; %-inhibition, MST3 [5, 26]: -1.73%; %-inhibition ABL ([6]; ABL kinase assay, 1 µmol/L single concentration, ref DOI: 10.1371/journal.pone.0092146): 15%; %-inhibition at 1 µmol/L, PKD2 [7, 32]: -13%; %-inhibition at 1 µmol/L, CLK3 [8, 27]: -14%; %-inhibition at 1 µmol/L, IGF1R [9, 28]: 10%; %-inhibition, MST1 [10, 29]: 51%; %-inhibition at 1 µmol/L, PIM1 [11, 30]: -3.41% |
| CCc1cc2c(cc1N1CCC(N3CCOCC3)CC1)C(C)(C)c1[nH]c3cc(C#N)ccc3c1C2=O [alectinib] | 2.73% | -12% | -1.89% | 23% | -2.37% | 5% | -1.05% | -2.36% | 10% | 10% | 15% | – |
